# In publication PMC8558867, “Development of BromoTag: A “Bump-and-Hole”–PROTAC System to Induce Potent, Rapid, and Selective Degradation of Tagged Target Proteins” (Journal of Medicinal Chemistry, 2021):
# Assays:
# [1] = target: T1, VHL (VCB protein) (Homo sapiens, UniProt P40337); assay: FP competitive binding assay, binary binding; conditions: compound alone; mean ±S.E.M., N = 4; read-out: binary affinity to VHL Kd
# T1 construct: N-terminally His6-tagged VHL (54–213); His6 (N, cleaved yes); made in house; host or cells: E. coli
# [2] = target: T2, VHL with Brd4^BD2 L387A (Homo sapiens, UniProt O60885+P40337, L387A); assay: FP competitive binding assay, ternary complex binding (compound preincubated with Brd4^BD2 L387A)
# T2 construct: N-terminally His6-tagged VHL (54–213); His6 (N, cleaved yes); made in house; host or cells: E. coli
# [3] = tested on: 22RV1 cells; assay: CellTiter-Glo 2.0 cell viability assay, 22RV1; assay type: cell-based, human; conditions: 22RV1, up to 1–10 μM
# [4] = tested on: proteome of heterozygous BromoTag-Brd2 HEK293 cells; assay: Multiplexed TMT labeling mass spectrometry proteomics; assay type: cell-based, human; conditions: 1 μM, 2 h
# Method: To do this, we subjected our heterozygous BromoTag-Brd2 HEK293 cell line to a 1 μM treatment of 46, its non-degrading control 52, or vehicle (DMSO) for 2 h prior to harvest. The harvested lysate was then subjected to multiplexed tandem mass tag (TMT) labeling mass spectrometry to enable quantitative and unbiased analysis of protein levels in each condition.
# CRISPR-modified BromoTag-Brd2 HEK293 cells (5 × 10^6) were seeded on a […] 24 h before treatment. The cells were treated with either DMSO, 1 μM AGB1, or 1 μM cis-AGB1. After 2 h of treatment, the cells were washed twice with PBS. The cells were lysed in 150 μL of 100 mM TEAB and 5% (w/v) sodium dodecyl sulfate. The lysate was sonicated for 10 s and then centrifuged at 15,000g for 5 min with the supernatant collected post-centrifugation. The samples were then quantified using a micro-BCA protein assay kit (Thermo Fisher Scientific); 300 μg of each sample was then reduced, alkylated, and then digested using the Strap mini protocol (protifi) as described by the manufacturer (protifi) with some modification. The samples were double-digested with trypsin (1:40) first overnight and then for another 6 h with the same ratio (1:40) in 50 mM TEAB buffer. The peptides were quantified using a quantitative fluorometric peptide assay (Thermo Fisher Scientific). […]
# [5] = tested on: BromoTag-Brd2; assay: Competition assay (inhibitor pretreatment, western blot); assay type: cell-based, human; conditions: 200 nM 46 for 3 h after 1 h pretreatment
# Method: Heterozygous BromoTag-Brd2 HEK293 cells were plated in six-well plates at a density of 5 × 10^5 cells per well in 2 mL DMEM. […] After 3 h, the cells were harvested for subsequent processing via western blot. Each treatment was performed in tandem to produce two technical repeats per condition. The six-well plates were incubated for 4 h at 37 °C and 5% CO2 throughout the experiment.
# (§1) All cells were harvested on ice with RIPA lysis and extraction buffer (Thermo Fisher Scientific, 89901) supplemented with protease inhibitor cocktail (Merck, 11697498001) and Benzonase Nuclease (Sigma, E1014) before being stored at −20 °C prior to use. Total protein quantity was determined using the BCA protein assay (#23225, Pierce, Rockford, Illinois). The protein concentration was determined using the BCA assay (Thermo Fisher Scientific, 23225). The samples were then prepared and loaded onto NuPAGE 4–12% bis–tris Midi gels (Thermo Fisher Scientific, WG1403A), followed by the transfer of proteins onto nitrocellulose membranes (EMD Millipore). The membranes were blocked for 1 h prior to incubation with the primary antibodies using 5% Milk TBST. […] All western blots were analyzed for band intensities using Image Lab from Bio-Rad (LI-COR, Biosciences). The data extracted from these blots were then plotted and analyzed using Prism (v. 8.2.0, GraphPad).
# [6] = tested on: BromoTag-Brd2; assay: Recovery (washout) assay; assay type: cell-based, human
# Method: This was performed in the genotype-verified heterozygous BromoTag-Brd2 HEK293 cell line. Heterozygous BromoTag-Brd2 HEK293 cells were plated at a density of 5 × 10^5 cells per well of a six-well plate a day before initiating the recovery assay. […] During treatment, the cells were kept at 37 °C, 5% CO2, and 95% humidity.
# as §1
compound,measurement,setting,value
"CC[C@@H](C(=O)OCCOCCOCCOCC(=O)N[C@H](C(=O)N1C[C@H](O)C[C@H]1C(=O)NCc1ccc(-c2scnc2C)cc1)C(C)(C)C)[C@@H]1N=C(c2ccc(Cl)cc2)c2c(sc(C)c2C)-n2c(C)nnc21 [AGB1 (46), (S)-13-((2S,4R)-4-Hydroxy-2-((4-(4-methylthiazol-5-yl)benzyl)carbamoyl)pyrrolidine-1-carbonyl)-14,14-dimethyl-11-oxo-3,6,9-trioxa-12-azapentadecyl (R)-2-((S)-4-(4-chlorophenyl)-2,3,9-trimethyl-6H-thieno[3,2-f][1,2,4]triazolo[4,3-a][1,4]diazepin-6-yl)butanoate]",Kd,[1],125 nM
same,α (FP binding),"[2]; cooperativity, Kd binary/Kd ternary, supplementary CSV",11.1
same,Kd,"[2]; preincubated with Brd4^BD2 L387A, mean ±S.E.M., N = 4, read-out: ternary binding affinity Kd",11 nM
same,cooperativity (α),[2]; α = Kd binary/Kd ternary,11.1
same,cytotoxicity,[3],lack of cytotoxicity
same,proteins significantly degraded among the 6621 proteins quantified,[4],only Brd2 was shown to be significantly degraded
same,on-target degradation activity upon pretreatment with MLN4924 or VH298,"[5]; 3 μM MLN4924, 10 μM VH298",completely abrogated
same,on-target degradation activity upon pretreatment with MG132,[5]; 50 μM MG132,blocked
same,time after washout at which BromoTag-Brd2 protein levels recover,"[6]; 200 nM for 3 h, then washout",24 h
same,on-target degradation without washout,"[6]; 200 nM, no washout",complete and durable on-target degradation for up to 72 h
